{"source": "patent US10137185B2", "about": "“PAP peptide analogues” (THE NOTTINGHAM TRENT UNIVERSITY, priority 2014, dated 2018)", "key": {"[1]": {"tested_on": "PBMCs from HLA-A2 positive patients with prostate cancer and individuals with benign disease", "assay": "IFNγ ELISPOT of PBMCs from prostate cancer patients and individuals with benign disease after peptide re-stimulation", "type": "cell-based, human", "protocol": "FIG. 3. IFNγ response of peripheral blood mononuclear cells (PBMCs) isolated from patients with prostate cancer and individuals with benign disease after re-stimulation with PAP-115-123 epitope using an ELISPOT assay. Cryopreserved PBMCs from ten HLA-A2 positive prostate cancer patients and ten benign candidates were compared. The PBMCs were cultured in vitro with 5 μg of PAP-114-128 epitope for 7 days. The cells were then washed and rested overnight and 4×10^4 cells were added to each well of an ELISPOT plate. PAP-115-123 epitope peptide (1 μg) was added per well and cells cultured for 48 hours. The plates were then washed according to the manufacturer's protocol. PBMCs with no added peptide were used as control. Comparisons of means (±SEM) between groups (cells pulsed with PAP-115-123 or no peptide) are made using an unpaired t test.\nFIG. 12. IFNγ responses generated by PBMCs isolated from 10 patients with prostate cancer and 10 individuals with benign disease after re-stimulation with the PAP-115-123 analogue epitope peptide, as determined using an ELISPOT assay. PBMCs were cultured in vitro with 5 μg of PAP-114-128 analogue epitope for 7 days. The cells were then washed and rested overnight, at which time and 4×10^4 cells were added to each well of an ELISPOT plate. PAP-115-123 analogue epitope peptide (1 μg) was added to each well and the cells were cultured for 48 hours. The plates were then washed according to the manufacturer's protocol. PBMCs cultured with no added peptide were used as the control. Comparisons of means (±SEM) between groups (PBMCs pulsed with PAP-115-123 analogue or no peptide) are made using an unpaired t test.\nTo determine the presence of circulating T cells specific for PAP-115-123 in humans, PBMCs from HLA-A2 positive patients with prostate cancer and individuals with benign disease were used. Cryopreserved PBMCs were thawed, washed and restimulated for 7 days with […] epitope peptide. The cells were then washed and rested overnight, at which time 4×10^4 cells were added to each well of an ELISPOT plate. PAP-115-123 epitope peptide (1 μg) was added to each well and the cells cultured for 48 hours. The plates were developed according to the manufacturer's instructions. PBMCs cultured with no peptide were used as controls. […] The number of IFNγ spots generated by PBMCs from one of the patients was as high as 220 (vs 60 spots for the control). The number of spots generated by PBMCs for the other 6 patients with prostate cancer ranged between 50 and 100 (vs 10-20 in controls). Although some of the PBMCs from individuals with benign disease generated 50-100 spots, the number of spots in the control wells was also high.\nTo determine the presence of circulating T cells specific for PAP-115-123 analogue peptide in humans, PBMCs from HLA-A2 positive patients with prostate cancer and individuals with benign disease were used. Cryopreserved PBMCs were thawed, washed and restimulated for 7 days with […] analogue epitope. The cells were then washed and rested overnight, at which time 4×10^4 cells were added to each well of an ELISPOT plate. 1 μg of PAP-115-123 analogue epitope was added to each well and cells were cultured for 48 hours. The plates were developed as per the manufacturer's instructions. PBMCs cultured with no peptide were used as control. […] The number of IFNγ spots in one of the patients was as high as 180 spots compared to control (54 spots). Similar response was also obtained when PBMCs were co-cultured with PAP-115-123 epitope (FIG. 3). The number of spots generated by PBMCs from the 6 patients with prostate cancer patients ranged between 50 and 100 (vs 10-20 in control wells). Although some of the samples from individuals with benign disease generated 50-100 spots, the number of spots in the control wells was also high."}, "[2]": {"tested_on": "PBMCs isolated from patients with prostate cancer", "assay": "IFNγ ELISA of supernatants of PBMCs, Norway clinical trial", "type": "cell-based, human", "protocol": "FIG. 8. Fold change in the IFNγ response generated by PBMCs isolated from patients with prostate cancer from the Norway Clinical Trial after re-stimulation with of PAP-115-123 epitope peptide (10 μg), as assessed using an ELISA. Patients that were reported to have responded to the treatment (p10, p12, p15, p19, p101, p102, p107, p108) are indicated by red bars. […] The cryopreserved PBMCs were washed and rested overnight, at which time 4×10^4 cells were added to each well of a 96 well plate. PAP-115-123 epitope peptide (10 μg) was added to each well and the plates cultured for 48 hours. Supernatants were harvested and analysed for IFNγ secretion.\nCryopreserved PBMCs were thawed, washed and rested overnight, at which time 4×10^4 cells were added to each well of an ELISPOT plate. PAP-115-123 epitope peptide (10 μg) was to each well and cells were cultured for 48 hours. The plates were developed according to the manufacturer's protocol. PBMCs cultured with HIV-derived peptide or no peptide were used as controls. A 2-4 fold higher PAP-115-123 specific IFNγ response was observed using PBMCs from 8 of the responder patients and 2-12 fold decreases in the IFNγ response was observed using PBMCs from 4 of the non-responder patients (FIG. 7). IFNγ secretion in these samples was confirmed by analysing harvested supernatants using an R&D Systems ELISA (FIG. 8). […]"}}, "data": [{"sequence": "SAMTNLAAL [PAP-115-123]", "values": [{"measurement": "number of spots, other 6 patients with prostate cancer", "setting": "[1]; 1 μg peptide, 4×10^4 cells per well, 10-20 in controls", "value": "50-100 spots"}, {"measurement": "number of spots, some PBMCs from individuals with benign disease", "setting": "[1]; 1 μg peptide, spots in control wells also high", "value": "50-100 spots"}, {"measurement": "peptide-specific IFNγ response in samples from individuals with benign disease", "setting": "[1]; 10 benign individuals, 1 μg peptide", "value": "no PAP-115-123 specific IFNγ response and none"}, {"measurement": "PBMC samples from patients with prostate cancer with peptide-specific IFNγ response", "setting": "[1]; of 10 samples, 7 days re-stimulation with the 15-mer, then 1 μg peptide, 48 hours, vs no peptide", "value": 7}, {"measurement": "number of IFNγ spots, highest patient", "setting": "[1]; one prostate cancer patient, 1 μg peptide, 4×10^4 cells per well, 48 hours", "value": 220, "unit": "spots"}, {"measurement": "fold lower IFNγ levels post vs pre vaccination, non-responders", "setting": "[2]; 10 μg peptide", "value": "2-2.5 fold"}, {"measurement": "fold higher IFNγ levels post vs pre vaccination, responders", "setting": "[2]; all responders except p19, 10 μg peptide", "value": "1-1.5 fold"}]}]}
